Experiment [1] has as its target T1, B-RAF V600E (Homo sapiens, UniProt P15056, V600E).
T1 construct: expressed in transfected cells; host or cells: T-Rex 293 cells (Invitrogen #R71007)
The experiment is described as follows: Target protein degradation, assay C: T-Rex 293 cells, HA-BRAF_V600E, 384 well format. In kind it is cell-based. To be noted: T-Rex 293 HA-BRAF_V600E cells, 24 hours, Examples 83-269; for DC50: Assay C; for Dmax: T-REx-293, Assay C. The procedure, abridged:
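After 24 h exposure to an 11-point 1:3 series (300 nM–5 pM, 0.5% DMSO), fixed T-Rex 293 cells carrying HA-BRAF V600E (induced with 1 ng/mL doxycycline) were stained anti-HA and imaged. DC50 and Dmax were derived from BRAF intensity relative to control, and cytotoxicity from nuclear counts.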

Experiment [2] deals with T2, B-RAF G466V (Homo sapiens, UniProt P15056, G466V).
T2 construct: expressed in transfected cells; host or cells: T-Rex 293 cells (Invitrogen #R71007)
The experiment is described as follows: Target protein degradation, assay D: T-Rex 293 cells, HA-BRAF_G466V, 384 well format. Type of experiment: cell-based. The conditions noted are these: T-Rex 293 HA-BRAF_G466V cells, 24 hours, Examples 83-269; for DC50: Assay D; for Dmax: T-REx-293, Assay D. An outline of the steps:
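Degradation measured by high-content imaging of anti-HA immunofluorescence in fixed T-Rex 293 cells carrying inducible HA-BRAF G466V (1 ng/mL doxycycline), after 24 h PROTAC exposure at 37 °C over 300 nM–5 pM (1:3, 11 points, 0.5% DMSO). Outputs DC50 and Dmax as % of control; nuclei counts against DMSO wells gauge toxicity.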

T1 sequence (P15056 whole entry V600E): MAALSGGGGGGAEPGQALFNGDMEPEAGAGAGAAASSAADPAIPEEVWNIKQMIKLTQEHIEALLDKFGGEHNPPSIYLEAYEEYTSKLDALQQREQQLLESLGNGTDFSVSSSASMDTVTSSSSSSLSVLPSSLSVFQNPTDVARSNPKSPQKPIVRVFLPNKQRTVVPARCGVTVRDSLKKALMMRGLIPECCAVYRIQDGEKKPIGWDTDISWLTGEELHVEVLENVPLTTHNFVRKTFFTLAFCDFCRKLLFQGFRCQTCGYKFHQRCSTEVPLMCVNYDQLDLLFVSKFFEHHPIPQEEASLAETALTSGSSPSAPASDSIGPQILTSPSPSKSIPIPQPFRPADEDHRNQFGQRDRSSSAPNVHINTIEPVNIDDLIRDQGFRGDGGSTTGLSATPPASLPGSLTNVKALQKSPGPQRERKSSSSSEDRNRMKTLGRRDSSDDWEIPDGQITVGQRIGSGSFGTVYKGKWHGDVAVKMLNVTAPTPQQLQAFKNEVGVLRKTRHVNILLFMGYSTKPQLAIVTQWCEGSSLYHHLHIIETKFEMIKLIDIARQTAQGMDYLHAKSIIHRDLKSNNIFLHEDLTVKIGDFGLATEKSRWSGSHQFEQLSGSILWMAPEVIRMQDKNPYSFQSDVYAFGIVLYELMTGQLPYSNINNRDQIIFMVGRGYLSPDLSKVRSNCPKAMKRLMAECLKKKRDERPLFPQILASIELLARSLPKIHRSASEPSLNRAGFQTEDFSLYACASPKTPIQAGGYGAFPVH
T2 sequence (P15056 whole entry G466V): as the sequence (P15056 whole entry V600E) above, with G466V, E600V counted along it

The DC50 is the midpoint of the concentration-degradation curve. Read a high DC50 as a less potent degrader. A word on the Dmax: it is the largest share of the target that was removed. Low values mean shallow degradation, high ones deep degradation. As to `COc1cc(N2CC(CN3CCN(c4ccc(-n5cnc6ccc(Oc7c(F)ccc(NS(=O)(=O)N8CC[C@@H](F)C8)c7C#N)cc6c5=O)cc4)CC3)C2)cc2c1C(=O)N([C@H]1CCC(=O)NC1=O)C2` [Example 236, (3R)-N-(2-cyano-3-{[3-(4-{4-[(1-{2-[(3S)-2,6-dioxopiperidin-3-yl]-7-methoxy-1-oxo-2,3-dihydro-1H-isoindol-5-yl}azetidin-3-yl)methyl]piperazin-1-yl}phenyl)-4-oxo-3,4-dihydroquinazolin-6-yl]oxy}-4-fluorophenyl)-3-fluoropyrrolidine-1-sulfonamide], the DC50 in experiment [1] was 0.05 to 0.5 µM; in experiment [2], 0.01 to 0.03 µM. Besides, the Dmax in experiment [1] was 35 to 70%; in experiment [2], at least 70%.
Take `COc1cc(N2CC(CN3CCN(c4ccc(-n5cnc6ccc(Oc7c(F)ccc(NS(=O)(=O)N8CC[C@@H](F)C8)c7C#N)cc6c5=O)cc4)CC3)C2)cc2c1C(=O)N([C@@H]1CCC(=O)NC1=O)C2` [Example 237, (3R)-N-(2-cyano-3-{[3-(4-{4-[(1-{2-[(3R)-2,6-dioxopiperidin-3-yl]-7-methoxy-1-oxo-2,3-dihydro-1H-isoindol-5-yl}azetidin-3-yl)methyl]piperazin-1-yl}phenyl)-4-oxo-3,4-dihydroquinazolin-6-yl]oxy}-4-fluorophenyl)-3-fluoropyrrolidine-1-sulfonamide]: in experiment [1], the DC50 lay in the range of 0.05 to 0.5 µM and the Dmax is 35 to 70%. In experiment [2], this molecule displayed a DC50 of 0.001 to 0.01 µM and a Dmax of at least 70%.
The like results for `N#Cc1c(NS(=O)(=O)N2CC[C@@H](F)C2)ccc(F)c1Oc1ccc2ncn(-c3ccc(N4CCC(CN5CC6(CCN(c7ccc8c(c7)CN([C@H]7CCC(=O)NC7=O)C8=O)CC6)C5)CC4)cc3)c(=O)c2c1` [Example 238, (3R)-N-(2-cyano-3-{[3-(4-{4-[(7-{2-[(3S)-2,6-dioxopiperidin-3-yl]-1-oxo-2,3-dihydro-1H-isoindol-5-yl}-2,7-diazaspiro[3.5]nonan-2-yl)methyl]piperidin-1-yl}phenyl)-4-oxo-3,4-dihydroquinazolin-6-yl]oxy}-4-fluorophenyl)-3-fluoropyrrolidine-1-sulfonamide] were, in that order, 0.05 to 0.5 µM, at least 70%, 0.001 to 0.01 µM and at least 70%.
Taken in the same sequence, the figures for `N#Cc1c(NS(=O)(=O)N2CC[C@@H](F)C2)ccc(F)c1Oc1ccc2ncn(-c3cccc(N4CCN(CC5CCN(c6ccc7c(c6)CN([C@H]6CCC(=O)NC6=O)C7=O)CC5)CC4)c3)c(=O)c2c1` [Example 239, (3R)-N-(2-cyano-3-{[3-(3-{4-[(1-{2-[(3S)-2,6-dioxopiperidin-3-yl]-1-oxo-2,3-dihydro-1H-isoindol-5-yl}piperidin-4-yl)methyl]piperazin-1-yl}phenyl)-4-oxo-3,4-dihydroquinazolin-6-yl]oxy}-4-fluorophenyl)-3-fluoropyrrolidine-1-sulfonamide] were 0.05 to 0.5 µM, at least 70%, 0.001 to 0.01 µM and at least 70%.
For the molecule `N#Cc1c(NS(=O)(=O)N2CC[C@@H](F)C2)ccc(F)c1Oc1ccc2ncn(-c3cccc(C4CCN(CC5CCN(c6ccc7c(c6)CN([C@H]6CCC(=O)NC6=O)C7=O)CC5)CC4)c3)c(=O)c2c1` [Example 240, (3R)-N-(2-cyano-3-{[3-(3-{1-[(1-{2-[(3S)-2,6-dioxopiperidin-3-yl]-1-oxo-2,3-dihydro-1H-isoindol-5-yl}piperidin-4-yl)methyl]piperidin-4-yl}phenyl)-4-oxo-3,4-dihydroquinazolin-6-yl]oxy}-4-fluorophenyl)-3-fluoropyrrolidine-1-sulfonamide], in experiment [1], the 50% degradation concentration (DC50) was in the range of 0.005 to 0.05 µM and the Dmax is at least 70%. Besides, in experiment [2], the DC50 lay within 0.001 to 0.01 µM and the Dmax is at least 70%.
As to `N#Cc1c(NS(=O)(=O)N2CC[C@@H](F)C2)ccc(F)c1Oc1ccc2ncn(-c3ccc(N4CCN(C(=O)C5CN(c6ccc7c(c6)CN([C@H]6CCC(=O)NC6=O)C7=O)C5)CC4)cc3)c(=O)c2c1` [Example 243, (3R)-N-{2-cyano-3-[(3-{4-[4-(1-{2-[(3S)-2,6-dioxopiperidin-3-yl]-1-oxo-2,3-dihydro-1H-isoindol-5-yl}azetidine-3-carbonyl)piperazin-1-yl]phenyl}-4-oxo-3,4-dihydroquinazolin-6-yl)oxy]-4-fluorophenyl}-3-fluoropyrrolidine-1-sulfonamide], the DC50 is over 0.5 µM in experiment [1] and 0.01 to 0.03 µM in experiment [2]. Besides, in experiment [2], the Dmax was 35 to 70%.
On to `N#Cc1c(NS(=O)(=O)N2CC[C@@H](F)C2)ccc(F)c1Oc1ccc2ncn(-c3ccc(N4CCN(CCN5CCN(c6ccc(C7CCC(=O)NC7=O)cc6F)CC5)CC4)cc3)c(=O)c2c1` (stereo partly drawn) [Example 244, (3R)-N-{2-cyano-3-[(3-(4-[4-(2-{4-[4-(2,6-dioxopiperidin-3-yl)-2-fluorophenyl]piperazin-1-yl}ethyl)piperazin-1-yl]phenyl}-4-oxo-3,4-dihydroquinazolin-6-yl)oxy]-4-fluorophenyl}-3-fluoropyrrolidine-1-sulfonamide], for which, in experiment [1], the DC50 was in the range of 0.05 to 0.5 µM and the Dmax fell in the range of 35 to 70%. In experiment [2], this molecule yielded a DC50 of 0.001 to 0.01 µM and a Dmax of at most 35%.
Taken in the same sequence, the figures for `Cn1c(=O)n(C2CCC(=O)NC2=O)c2cccc(N3CCN(CCN4CCN(c5ccc(-n6cnc7ccc(Oc8c(F)ccc(NS(=O)(=O)N9CC[C@@H](F)C9)c8C#N)cc7c6=O)cc5)CC4)CC3)c21` (stereo partly drawn) [Example 245, (3R)-N-{2-cyano-3-[(3-{4-[4-(2-{4-[1-(2,6-dioxopiperidin-3-yl)-3-methyl-2-oxo-2,3-dihydro-1H-1,3-benzodiazol-4-yl]piperazin-1-yl}ethyl)piperazin-1-yl]phenyl}-4-oxo-3,4-dihydroquinazolin-6-yl)oxy]-4-fluorophenyl}-3-fluoropyrrolidine-1-sulfonamide] were 0.05 to 0.5 µM, at least 70%, 0.001 to 0.01 µM and 35 to 70%.
Taken in the same sequence, the figures for `Cn1c(=O)n(C2CCC(=O)NC2=O)c2cccc(N3CC4(CC(CN5CCN(c6ccc(-n7cnc8ccc(Oc9c(F)ccc(NS(=O)(=O)N%10CC[C@@H](F)C%10)c9C#N)cc8c7=O)cc6)CC5)C4)C3)c21` (stereo partly drawn) [Example 246, (3R)-N-{2-cyano-3-[(3-{4-[4-({2-[1-(2,6-dioxopiperidin-3-yl)-3-methyl-2-oxo-2,3-dihydro-1H-1,3-benzodiazol-4-yl]-2-azaspiro[3.3]heptan-6-yl}methyl)piperazin-1-yl]phenyl}-4-oxo-3,4-dihydroquinazolin-6-yl)oxy]-4-fluorophenyl}-3-fluoropyrrolidine-1-sulfonamide] were 0.05 to 0.5 µM, 35 to 70%, 0.001 to 0.01 µM and 35 to 70%.
Consider `N#Cc1c(NS(=O)(=O)N2CC[C@@H](F)C2)ccc(F)c1Oc1ccc2ncn(-c3ccc(N4CCN(CC5CN(c6cc(F)c7c(c6)CN(C6CCC(=O)NC6=O)C7=O)C5)CC4)cc3)c(=O)c2c1` (stereo partly drawn) [Example 247, (3R)—N-{2-cyano-3-[(3-{4-[4-({1-[2-(2,6-dioxopiperidin-3-yl)-7-fluoro-1-oxo-2,3-dihydro-1H-isoindol-5-yl]azetidin-3-yl}methyl)piperazin-1-yl]phenyl}-4-oxo-3,4-dihydroquinazolin-6-yl)oxy]-4-fluorophenyl}-3-fluoropyrrolidine-1-sulfonamide], for which, in experiment [1], the DC50 lay within 0.05 to 0.5 µM and the Dmax was at least 70%. In experiment [2], this molecule yielded a DC50 of 0.001 to 0.01 µM and a Dmax of 35 to 70%.
Taken in the same sequence, the figures for `N#Cc1c(NS(=O)(=O)N2CC[C@@H](F)C2)ccc(F)c1Oc1ccc2ncn(-c3ccn(C4CCN(CC5CCN(c6ccc7c(c6)CN([C@H]6CCC(=O)NC6=O)C7=O)CC5)CC4)n3)c(=O)c2c1` [Example 248, (3R)—N-(2-cyano-3-{[3-(1-{1-[(1-{2-[(3S)-2,6-dioxopiperidin-3-yl]-1-oxo-2,3-dihydro-1H-isoindol-5-yl}piperidin-4-yl)methyl]piperidin-4-yl}-1H-pyrazol-3-yl)-4-oxo-3,4-dihydroquinazolin-6-yl]oxy}-4-fluorophenyl)-3-fluoropyrrolidine-1-sulfonamide] were 0.05 to 0.5 µM, at least 70%, 0.001 to 0.01 µM and at least 70%.
`N#Cc1c(NS(=O)(=O)N2CC[C@@H](F)C2)ccc(F)c1Oc1ccc2ncn(-c3ccc(C4CCN([C@H]5C[C@H](OC6CCN(c7ccc8c(c7)CN(C7CCC(=O)NC7=O)C8=O)CC6)C5)CC4)cc3)c(=O)c2c1` (stereo partly drawn) [Example 249, (3R)—N-(2-cyano-4-fluoro-3-{[4-oxo-3-(4-{1-[(1r,3r)-3-({1-[2-(2,6-dioxopiperidin-3-yl)-1-oxo-2,3-dihydro-1H-isoindol-5-yl]piperidin-4-yl}oxy)cyclobutyl]piperidin-4-yl}phenyl)-3,4-dihydroquinazolin-6-yl]oxy}phenyl)-3-fluoropyrrolidine-1-sulfonamide] gave a DC50 in experiment [1] of over 0.5 µM. In addition, in experiment [2], the DC50 is 0.001 to 0.01 µM and the Dmax was 35 to 70%.

These data come from US11957759B1, “Rapidly accelerated fibrosarcoma (RAF) degrading compounds and associated methods of use” (Arvinas Operations, Inc., priority 2022, dated 2024).
